This is an account of results in patent US5609897A, “Powdered beverage concentrate or additive fortified with calcium and vitamin D” (priority 1995, dated 1997).

For data set [1] the following is noted: low birth weight infants; cited from earlier work.
Data set [2] in a line: Titratable acidity of calcium sources. To be noted: from pH 3.5 to pH 8.3, 40 g sample. The format is physicochemical. From the text:
Acidity is desired in the liquid nutritional product of the present invention for several reasons such as: to maintain the calcium salt solubility, to complement flavor, to control microbial growth, and to enhance the role of preservatives, specifically potassium benzoate or sodium benzoate. On the other hand, too much acidity can result in increased tartness and sourness that make the product undesirable from a sensory point of view. […] Titratable acidity is an indication of the total acidity of a beverage.

The conditions of data set [3]: piglets; cited from earlier work.
For data set [4] the following is noted: rats, 3 weeks, right femur calcium, as compared to a control; cited from earlier work.
The conditions of data set [5]: without aluminum-containing drugs, normal kidneys; cited from earlier work.
The conditions of data set [6]: humans; cited from earlier work.
The conditions of data set [7]: cited from earlier work.
For data set [8] the following is noted: cited from earlier work. This is another data set of the same source.
In a further data set the test system is yeasts and molds. To be noted: pH 4.5 to 3.0; cited from earlier work.
For data set [9] the following is noted: pH 3.5. The method, then: In this evaluation solubility was determined by a visual examination.

Where a name gives a salt, the structure may show the parent alone. Read-outs that look alike come from different tables or passages of the source.

On to Calcium Glycerophosphate [CaGP], for which the “Efficacy as source of calcium in TPN” value in data set [1] and in [3] was “as effective as calcium gluconate” each time. For the same compound, in [2], the Titratable acidity is 43.5 mL of 0.1N NaOH. Take `O=C(O)CC(O)(CC(=O)O)C(=O)O` [Calcium Citrate, calcium citrate]: in data set [4], the Relative calcium bioavailability is 110%. Besides, in data set [5], the “Risk of aluminum toxicity” value is recorded as “does not pose a risk of aluminum toxicity”. As to `O=C(O)O` [Calcium Carbonate, calcium carbonate], the Calcium absorption in [6] is reported as 29.6%. Further, the “adverse effects of large amounts” value in data set [7] was “constipation and abdominal distention”. For the compound Calcium Citrate Malate, the Calcium absorption in [6] is recorded as 38.3%. Moreover, the Titratable acidity in [2] was 53.2 mL of 0.1N NaOH.

Turning to vitamin D, the “calcium balance and fracture risk” value in [8] (600-800 IU/day) was “improve calcium balance and reduce fracture risk”. In data set [8] (excessive doses), the “risks of excessive doses” value is “hypercalciuria and hypercalcemia”. On to `O=P([O-])([O-])[O-].O=P([O-])([O-])[O-].[Ca+2].[Ca+2].[Ca+2]` [Tricalcium Phosphate, tricalcium phosphate], for which the Relative calcium bioavailability in [4] was 110%. `O=C(O)c1ccccc1` [benzoic acid]: the “preservative effect on reducing pH from 4.5 to 3.0” value in the data set with yeasts and molds was “increased by nearly three times”. In the case of `O=C(O)[C@H](O)[C@@H](O)[C@H](O)[C@H](O)CO` [D-Gluconic-Acid, D-gluconic acid (hemicalcium salt)], in [9], the Solubility result is “soluble” and the “Solubility over one month” value is “remained soluble at pH 3.5 for at least one month”.
